Test results taken from patent US20170050957A1, “4-AMINO-6-(HETEROCYCLIC)PICOLINATES AND 6-AMINO-2-(HETEROCYCLIC)PYRIMIDINE-4-CARBOXYLATES AND THEIR USE AS HERBICIDES” (Dow AgroSciences LLC, priority 2013, published 2017).
Read-outs that look alike come from different tables or passages of the source.

Key:
[1] = test system: Key Broadleaf Weed and Crop Species; assay: Post-emergent Test II herbicidal activity (Table 15); assay type: in vivo; conditions: post-emergence, 336 h, 14 d; for pest or weed control at 35 g/ha: 35 g ai/ha; for pest or weed control at 70 g/ha: 70 g ai/ha; for pest or weed control at 140 g/ha: 140 g ai/ha
Procedure, shortened: (§1)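 Visual injury rating (0 = none, 100% = complete kill) made 14 d after treatment, relative to untreated plants. Compounds in an acetone/DMSO/aqueous crop-oil/surfactant spray, at top rate and serial 1/2×-1/16× rates, were applied at 187 L/ha overhead to first-second true leaf plants raised 7-21 d in greenhouse.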

[2] = test system: Key Grass and Sedge Weeds as well as Grass Crops; assay: Post-emergent Test II herbicidal activity (Table 16); assay type: in vivo; conditions: post-emergence, 336 h, 14 days after application; for pest or weed control at 35 g/ha: 35 g ai/ha; for pest or weed control at 70 g/ha: 70 g ai/ha; for pest or weed control at 140 g/ha: 140 g ai/ha
Procedure, shortened: as §1

[3] = Abutilon theophrasti, velvetleaf (Abutilon theophrasti), read-out: Visual Growth Reduction (%) 14 Days After Application, ABUTH
[4] = Amaranthus retroflexus, redroot pigweed (Amaranthus retroflexus), read-out: Visual Growth Reduction (%) 14 Days After Application, AMARE
[5] = Brassica napus, oilseed rape, canola (Brassica napus), read-out: Visual Growth Reduction (%) 14 Days After Application, BRSNN
[6] = Chenopodium album, lambsquarters (Chenopodium album), read-out: Visual Growth Reduction (%) 14 Days After Application, CHEAL
[7] = Helianthus annuus, sunflower (Helianthus annuus), read-out: Visual Growth Reduction (%) 14 Days After Application, HELAN
[8] = Echinochloa crus-galli, barnyardgrass (Echinochloa crus-galli), read-out: Visual Growth Reduction (%) 14 Days After Application ECHCG
[9] = Oryza sativa, rice (Oryza sativa), read-out: Visual Growth Reduction (%) 14 Days After Application ORYSA
[10] = Setaria faberi, giant foxtail (Setaria faberi), read-out: Visual Growth Reduction (%) 14 Days After Application SETFA
[11] = Triticum aestivum, wheat, spring (Triticum aestivum), read-out: Visual Growth Reduction (%) 14 Days After Application TRZAS
[12] = Zea mays, maize, corn (Zea mays), read-out: Visual Growth Reduction (%) 14 Days After Application ZEAMX

COC(=O)c1nc(-c2ccc3ocnc3c2)c(F)c(N)c1Cl [Compound 5.01]
75 to 84%: pest or weed control at 35 g/ha [1, 4] | pest or weed control at 35 g/ha [2, 8] | pest or weed control at 70 g/ha [2, 8]
60 to 74%: pest or weed control at 35 g/ha [1, 3] | pest or weed control at 70 g/ha [1, 3] | pest or weed control at 140 g/ha [1, 3] | pest or weed control at 35 g/ha [1, 6]
95 to 100%: pest or weed control at 70 g/ha [1, 5] | pest or weed control at 140 g/ha [1, 5] | pest or weed control at 70 g/ha ([1]; Euphorbia heterophylla, wild poinsettia (Euphorbia heterophylla), read-out: Visual Growth Reduction (%) 14 Days After Application, EPHHL) | pest or weed control at 140 g/ha [1, 7]
0 to 29%: pest or weed control at 35 g/ha [2, 9] | pest or weed control at 70 g/ha [2, 9] | pest or weed control at 140 g/ha [2, 9] | pest or weed control at 35 g/ha [2, 10] | pest or weed control at 70 g/ha [2, 10] | pest or weed control at 140 g/ha [2, 10] | pest or weed control at 35 g/ha [2, 11] | pest or weed control at 70 g/ha [2, 11] | pest or weed control at 140 g/ha [2, 11] | pest or weed control at 35 g/ha [2, 12] | pest or weed control at 70 g/ha [2, 12] | pest or weed control at 140 g/ha [2, 12]
85 to 94%: pest or weed control at 70 g/ha [1, 4] | pest or weed control at 140 g/ha [1, 4] | pest or weed control at 35 g/ha [1, 5] | pest or weed control at 70 g/ha [1, 6] | pest or weed control at 140 g/ha [1, 6] | pest or weed control at 35 g/ha [1, 7] | pest or weed control at 70 g/ha [1, 7] | pest or weed control at 140 g/ha [2, 8]
